Data published in PMC10669433 (Antibiotics, 2023).
“Also recorded” adds a separate entry of the source.

How the values were obtained:
infective endocarditis [1] = conditions: review, sequential dalbavancin in infective endocarditis, 170 patients; cited from earlier work
[2] = Adverse events in the case series; assay type: in vivo, human
[3] = cited from earlier work
Description: It is associated with good tissue penetration, including staphylococcal biofilms, making this antibiotic a promising agent to treat biofilm-mediated infections.

[4] = test system: cardiovascular prosthetic infections (PVE, CEDI, PVGI); experiment: Clinical cure in patients with cardiovascular prosthetic infections treated with dalbavancin as sequential therapy (retrospective case series); assay type: in vivo, human
Description: Data were collected from May 2019 to May 2023 at the Modena University Hospital, a tertiary care hospital in Northern Italy. Cardiovascular infections included PVE, CEDI, and PVGI.
(§1) Clinical evaluation was carried out at the end of treatment (EOT) and at the end of a six-month follow-up. Primary outcome was clinical cure, defined as resolution of all clinical signs and symptoms of infection, with or without radiological improvement. […] Finally, for primary outcome, a comparison between patients treated with standard (the 1500 mg infusion regimen at day 1 and day 8, with subsequent 1000 mg administrations every 2 weeks) vs. TDM-guided approach was performed.

[5] = test system: vancomycin-resistant S. aureus (VRSA); conditions: cited from earlier work
Description: (§2) Dalbavancin is a long-acting parenteral lipoglycopeptide, a semisynthetic derivative of teicoplanin. It is characterized by a large spectrum of action against Gram-positive bacteria, such as Staphylococcus aureus (including methicillin-resistant S. aureus, but also strains with intermediate sensitivity to vancomycin), Streptococcus agalactiae, Streptococcus pyogenes, Streptococcus anginosus, vancomycin-sensitive Enterococcus faecium, and Enterococcus faecalis; it is poorly active against vancomycin-resistant S. aureus (VRSA), and it is not active against vancomycin-resistant enterococci with t ...

[6] = test system: vancomycin-resistant enterococci with the Van A phenotype; conditions: cited from earlier work
Description: as §2

[7] = test system: cardiovascular prosthetic infections (PVE, CEDI, PVGI); experiment: 18F-FDG PET/TC radiological improvement; assay type: in vivo, human; conditions: 18F-FDG PET/TC available for nine patients; 6/9
Description: For diagnosis, all patients underwent clinical, microbiological, and echocardiographic evaluation (transthoracic echocardiography and transesophageal echocardiography [TEE]). Major echocardiographic criteria included vegetation, abscess, pseudoaneurysm, intracardiac fistula, valvular perforation or aneurysm, and new partial dehiscence of prosthetic valve. In addition, according to clinical indication, computed tomography (CT) angiography or cardiac one and/or 18F-fluorodeoxyglucose (FDG)-positron emission tomography (PET) PET were also performed.
Data collection included demographic information, Charlson Comorbidity Index (CCI), type and site of infection, microbiological isolation, prior antibiotic treatment, surgical procedure (performed or not, complete or partial), laboratory variables, and when available, radiological improvement (fluorodeoxyglucose positron emission tomography (FDG-PET) alone or in combination with computed tomographic angiography (CTA) to assess optimal duration of antibiotic treatment at follow-up).

infective endocarditis [8] = test system: infective endocarditis; parameters: method as in PMID 37442488, PMID 30389305; conditions: 124 subjects with infective endocarditis; cited from earlier work
[9] = test system: cardiovascular prosthetic infections (PVE, CEDI, PVGI); experiment: Microbiological cure / relapse (blood cultures) in the case series; assay type: in vivo, human
Description: as §1

S. aureus = conditions: dalbavancin group vs 22% in the SOC group, p = 0.484; cited from earlier work
Description: Unfortunately, all patients received dalbavancin as sequential therapy, with a medi ...

Compound: CN[C@H]1C(=O)N[C@@H]2Cc3ccc(cc3)Oc3cc4cc(c3O[C@@H]3O[C@H](C(=O)O)[C@@H](O)[C@H](O)[C@H]3NC(=O)CCCCCCCCC(C)C)Oc3ccc(cc3Cl)[C@@H](O)[C@@H]3NC(=O)[C@H](NC(=O)[C@@H]4NC(=O)[C@@H](NC2=O)c2cc(cc(O)c2Cl)Oc2cc1ccc2O)c1ccc(O)c(c1)-c1c(O[C@H]2O[C@H](CO)[C@@H](O)[C@H](O)[C@@H]2O)cc(O)cc1[C@@H](C(=O)NCCCN(C)C)NC3=O [dalbavancin]
- overall clinical efficacy (infective endocarditis [1]): around 90%
- Tolerability ([2]; 14 patients, long-term therapy): well tolerated
- Adverse effect reactions: impaired renal function, % ([2]; of N = 14 patients): (7.1) %
- Adverse effect reactions: rash, % ([2]; of N = 14 patients): (7.1) %
- elimination half-life [3]: 14 days
- total protein binding [3]: 93%
- clearance route ([3]; no active metabolites): predominantly renal
- Clinical cure according to causative pathogen: E. faecalis ([4]; 1/1 patient): 100%
- Clinical cure according to causative pathogen: G. morbillorum ([4]; 1/1 patient): 100%
- Clinical cure according to causative pathogen: CoNS ([4]; 2/2 patients): 100%
- Clinical cure according to causative pathogen: viridans Streptococcus ([4]; 3/3 patients): 100%
- Clinical cure according to causative pathogen: S. aureus ([4]; 3/5 patients): 60%
- Clinical success in patients treated without TDM ([4]; 3/5 patients): 60%
- Clinical cure, suppressive antibiotic therapy without complete source control ([4]; 6/9 patients): 66.6%
- Clinical cure at the EOT, cardiac implantable electronic devices infections (n = 3), % ([4]; CEDI, end of treatment): (66.6) %
- Clinical cure at the EOT, cardiac implantable electronic devices infections (n = 3), patients/evaluable ([4]; CEDI, end of treatment): 2/3
- Clinical cure at the EOT, prosthetic valve endocarditis (n = 8), % ([4]; PVE, end of treatment): (75) %
- Clinical cure at the EOT, prosthetic valve endocarditis (n = 8), patients/evaluable ([4]; PVE, end of treatment): 6/8
- Clinical cure at the EOT, prosthetic vascular grafts infections (n = 6), % ([4]; PVGI, end of treatment): (83.3) %
- Clinical cure at the EOT, prosthetic vascular grafts infections (n = 6), patients/evaluable ([4]; PVGI, end of treatment): 5/6
- Clinical cure at the EOT (n = 13), % ([4]; end of treatment, 10/13 patients): (76.9) %
- Clinical cure at the EOT (n = 13), patients cured/evaluable ([4]; end of treatment, dalbavancin 1500 mg day 1 and day 8, then further doses (fixed or TDM-guided), after first-line antibiotics): 10/13
- Clinical cure, patients who underwent the complete source control intervention ([4]; implant removal, 4/4 patients): 100%
- Clinical cure in TDM-guided group (n = 8), patients cured/evaluable ([4]; patients with TDM-guided redosing): 7/8
- Clinical Success End of Treatment ([4]; single patients): Yes (7 w); also recorded: Yes (25 w); also recorded: Yes (18 w); also recorded: Yes (29 w); also recorded: Yes (14 w); also recorded: Yes (47 w); also recorded: Yes (9 w); also recorded: No (16 w); also recorded: Yes (10 w); also recorded: Yes (20 w); also recorded: No (53 w); also recorded: No (12 w)
- Clinical Success Six Months Follow-Up ([4]; single patients, one table row per patient): Yes and No
- Clinical cure at six months of follow-up (n = 12), % ([4]; six-month follow-up): (75) %
- Clinical cure at six months of follow-up (n = 12), patients cured/evaluable ([4]; six-month follow-up): 9/12
- activity against vancomycin-resistant S. aureus (VRSA) [5]: poorly active
- activity against vancomycin-resistant enterococci with the Van A phenotype [6]: not active
- Radiological improvement with a marked SUV reduction [7]: 66.6%
- clinical success rate at 12 months of follow-up (infective endocarditis [8]): 95.2%
- Microbiological relapse after treatment interruption (n = 13), patients/evaluable ([9]; after dalbavancin interruption): 1/13
- Microbiological cure at the EOT (n = 13), patients/evaluable ([9]; end of treatment, sustained negativity of blood cultures): 10/13
- treatment-related readmission rates within 30 days (S. aureus): 15%
